Measured values taken from US20260274892A1, “MACROCYCLIC BROAD SPECTRUM ANTIBIOTICS” (RQx Pharmaceuticals, Inc., priority 2017, published 2026).

Tested on: Escherichia coli ATCC 25922
Assay: Minimum inhibitory concentration (MIC), CLSI broth micro-dilution, E. coli
Assay type: cell-based
Conditions: Escherichia coli, ATCC25922, 22 h, Table 6, cation adjusted Mueller Hinton Broth + 0.002% Tween-80, 35° C.
Procedure: In vitro antimicrobial activity of each compound was determined by measuring minimal inhibitor concentrations (MICs) using the broth micro-dilution technique as approved by the Clinical and Laboratory Standards Institute (CLSI) (Methods for Dilution Antimicrobial Susceptibility Tests for Bacteria that Grow Aerobically; Approved Standard-Eighth Edition. CLSI document M07-A8. Wayne, PA: Clinical and Laboratroy Standards; 2009). Antibacterial activity was measure against two strains of bacteria: a Methicillin Resistant Staphylococcus aureus strain USA 200, (S. aureus) and Escherichia coli ATCC 25922 (E. coli), a clinically relevant Gram-negative strain. Cells were inoculated onto plates of Trypyticase Soy Agar or Luria Agar respectively and grown at 35° C. for 20 hours. Inocula suspensions were prepared by scraping cells into 1 mL of testing media (cation adjusted Mueller Hinton Broth supplemented with 0.002% v/v Tween-80) and diluting to a final OD600nm of 0.01.
Test compounds were prepared in DMSO at a concentration of 10 mg/mL. In protocol 1, the compound stocks were diluted into testing media at a concentration of 64 µg/ml and serial 2-fold dilutions were made in the same media, in 96-well U bottom microtiter dishes, for a total of 10 compound concentrations. In protocol 2, the compound stocks were diluted into testing media at a concentration of 4 µg/mL and serial 2-fold dilutions were made in the same media, in 96-well U bottom microtiter dishes, for a total of 10 compound concentrations. In protocol 3, compound stocks were diluted into testing media at a concentration of 0.5 μg/mL, with serial 2-fold dilutions conducted as described above. In protocol 4, compound stocks were diluted into testing media at a concentration of […], with serial 2-fold dilutions conducted as described above. Inocula suspensions were added to the 2-fold serial dilutions of test compounds to a final density of GD OD600nm of 0.0005 and incubated at 35° C. for 22 hours.

SMILES	MIC [µM]
Cc1nc(-c2ccc(C3CCCCC3)cc2)nc(C)c1C(=O)N[C@@H](CCN)C(=O)N(C)[C@@H]1C(=O)N[C@@H](C)C(=O)N[C@H](C(=O)NCC#N)Cc2ccc(OCCN)c(c2)-c2cc1ccc2OCCN (racemic) [Compound 304, rac-(8S,11S,14S)-3,18-bis(2-aminoethoxy)-N-(cyanomethyl)-11-methyl-14-[methyl-[rac-(2S)-4-amino-2-[[2-(4-cyclohexylphenyl)-4,6-dimethyl-pyrimidine-5-carbonyl]amino]butanoyl]amino]-10,13-dioxo-9,12-diazatricyclo[13.3.1.12,6]icosa-1(18),2(20),3,5,15(19),16-hexaene-8-carboxamide]	0.13
Cc1nc(-c2ccc(C3CCCCCC3)cc2)nc(C)c1C(=O)N[C@@H](CCN)C(=O)N(C)[C@@H]1C(=O)N[C@@H](C)C(=O)N[C@H](C(=O)NCC#N)Cc2ccc(OCCN)c(c2)-c2cc1ccc2OCCN (racemic) [Compound 305, rac-(8S,11S,14S)-3,18-bis(2-aminoethoxy)-N-(cyanomethyl)-11-methyl-14-[methyl-[rac-(2S)-4-amino-2-[[2-(4-cycloheptylphenyl)-4,6-dimethyl-pyrimidine-5-carbonyl]amino]butanoyl]amino]-10,13-dioxo-9,12-diazatricyclo[13.3.1.12,6]icosa-1(18),2(20),3,5,15(19),16-hexaene-8-carboxamide]	0.13
Cc1nc(-c2ccc(N3C[C@H](C)C[C@H](C)C3)cc2)nc(C)c1C(=O)N[C@@H](CCN)C(=O)N(C)[C@@H]1C(=O)N[C@@H](C)C(=O)N[C@H](C(=O)NCC#N)Cc2ccc(OCCN)c(c2)-c2cc1ccc2OCCN (racemic) [Compound 327, rac-(8S,11S,14S)-3,18-bis(2-aminoethoxy)-N-(cyanomethyl)-11-methyl-14-[methyl-[rac-(2S)-4-amino-2-[[4,6-dimethyl-2-[4-[rac (3S,5R)-3,5-dimethyl-1-piperidyl]phenyl]pyrimidine-5-carbonyl]amino]butanoyl]amino]-10,13-dioxo-9,12-diazatricyclo[13.3.1.12,6]icosa-1(18),2(20),3,5,15(19),16-hexaene-8-carboxamide]	0.13
CCCCOc1c(F)c(F)c(-c2nc(C)c(C(=O)N[C@@H](CCN)C(=O)N(C)[C@@H]3C(=O)N[C@@H](C)C(=O)N[C@H](C(=O)NCC#N)Cc4ccc(OCCN)c(c4)-c4cc3ccc4OCCN)c(C)n2)c(F)c1F (racemic) [Compound 351, rac-(8S,11S,14S)-3,18-bis(2-aminoethoxy)-N-(cyanomethyl)-11-methyl-14-[methyl-[rac-(2S)-4-amino-2-[[2-(4-butoxy-2,3,5,6-tetrafluoro-phenyl)-4,6-dimethyl-pyrimidine-5-carbonyl]amino]butanoyl]amino]-10,13-dioxo-9,12-diazatricyclo[13.3.1.12,6]icosa-1(18),2(20),3,5,15(19),16-hexaene-8-carboxamide]	0.25
Cc1nc(-c2ccc(OCCCCC(C)(C)C)cc2)nc(C)c1C(=O)N[C@@H](CCN)C(=O)N(C)[C@@H]1C(=O)N[C@@H](C)C(=O)N[C@H](C(=O)NCC#N)Cc2ccc(OCCN)c(c2)-c2cc1ccc2OCCN (racemic) [Compound 357, rac-(8S,11S,14S)-3,18-bis(2-aminoethoxy)-N-(cyanomethyl)-11-methyl-14-[methyl-[rac-(2S)-4-amino-2-[[2-[4-(5,5-dimethylhexoxy)phenyl]-4,6-dimethyl-pyrimidine-5-carbonyl]amino]butanoyl]amino]-10,13-dioxo-9,12-diazatricyclo[13.3.1.12,6]icosa-1(18),2(20),3,5,15(19),16-hexaene-8-carboxamide]	0.19

Same assay, conditions: Escherichia coli, ATCC25922, Table 6, cation adjusted Mueller Hinton Broth + 0.002% Tween-80, 35° C., 22 hours

SMILES	MIC [µM]
C=Cc1ccc(C#Cc2nc(C)c(C(=O)N[C@@H](CCN)C(=O)N(C)[C@@H]3C(=O)N[C@@H](C)C(=O)N[C@H](C(=O)NCC#N)Cc4ccc(OCCN)c(c4)-c4cc3ccc4OCCN)c(C)n2)cc1 (racemic) [Compound 310, rac-(8S,11S,14S)-3,18-bis(2-aminoethoxy)-N-(cyanomethyl)-11-methyl-14-[methyl-[rac-(2S)-4-amino-2-[[4,6-dimethyl-2-[2-(4-vinylphenyl)ethynyl]pyrimidine-5-carbonyl]amino]butanoyl]amino]-10,13-dioxo-9,12-diazatricyclo[13.3.1.12,6]icosa-1(18),2(20),3,5,15(19),16-hexaene-8-carboxamide]	0.53
Cc1nc(-c2ccc(OC3(C)CC3)cc2)nc(C)c1C(=O)N[C@@H](CCN)C(=O)N(C)[C@@H]1C(=O)N[C@@H](C)C(=O)N[C@H](C(=O)NCC#N)Cc2ccc(OCCN)c(c2)-c2cc1ccc2OCCN (racemic) [Compound 344, rac-(8S,11S,14S)-3,18-bis(2-aminoethoxy)-N-(cyanomethyl)-11-methyl-14-[methyl-[rac-(2S)-4-amino-2-[[4,6-dimethyl-2-[4-(1-methylcyclopropoxy)phenyl]pyrimidine-5-carbonyl]amino]butanoyl]amino]-10,13-dioxo-9,12-diazatricyclo[13.3.1.12,6]icosa-1(18),2(20),3,5,15(19),16-hexaene-8-carboxamide]	0.38
CCC1(Oc2ccc(-c3nc(C)c(C(=O)N[C@@H](CCN)C(=O)N(C)[C@@H]4C(=O)N[C@@H](C)C(=O)N[C@H](C(=O)NCC#N)Cc5ccc(OCCN)c(c5)-c5cc4ccc5OCCN)c(C)n3)cc2)CC1 (racemic) [Compound 345, rac-(8S,11S,14S)-3,18-bis(2-aminoethoxy)-N-(cyanomethyl)-11-methyl-14-[methyl-[rac-(2S)-4-amino-2-[[2-[4-(1-ethylcyclopropoxy)phenyl]-4,6-dimethyl-pyrimidine-5-carbonyl]amino]butanoyl]amino]-10,13-dioxo-9,12-diazatricyclo[13.3.1.12,6]icosa-1(18),2(20),3,5,15(19),16-hexaene-8-carboxamide]	0.25
Cc1nc(Oc2ccc(C(C)(C)C)cc2)nc(C)c1C(=O)N[C@@H](CCN)C(=O)N(C)[C@@H]1C(=O)N[C@@H](C)C(=O)N[C@H](C(=O)NCC#N)Cc2ccc(OCCN)c(c2)-c2cc1ccc2OCCN (racemic) [Compound 353, rac-(8S,11S,14S)-3,18-bis(2-aminoethoxy)-N-(cyanomethyl)-11-methyl-14-[methyl-[rac-(2S)-4-amino-2-[[2-(4-tert-butylphenoxy)-4,6-dimethyl-pyrimidine-5-carbonyl]amino]butanoyl]amino]-10,13-dioxo-9,12-diazatricyclo[13.3.1.12,6]icosa-1(18),2(20),3,5,15(19),16-hexaene-8-carboxamide]	2
Cc1cc(-c2ccc(C(C)(C)C)cc2)nc(C)c1C(=O)N[C@@H](CCN)C(=O)N(C)[C@@H]1C(=O)N[C@@H](C)C(=O)N[C@H](C(=O)NCC#N)Cc2ccc(OCCN)c(c2)-c2cc1ccc2OCCN (racemic) [Compound 358, rac-(8S,11S,14S)-3,18-bis(2-aminoethoxy)-N-(cyanomethyl)-11-methyl-14-[methyl-[rac-(2S)-4-amino-2-[[6-(4-tert-butylphenyl)-2,4-dimethyl-pyridine-3-carbonyl]amino]butanoyl]amino]-10,13-dioxo-9,12-diazatricyclo[13.3.1.12,6]icosa-1(18),2(20),3,5,15(19),16-hexaene-8-carboxamide]	0.2
